# Measured values: US9920039B2, “1,2,4-Oxadiazol compounds active against gram-positive pathogens” (UNIVERSITÀ DEGLI STUDI DI MILANO—BICOCCA, priority 2013, dated 2018)
# Read-outs that look alike come from different tables or passages of the source.
# Key:
# [1] = tested on: 45 Linezolid-susceptible MRSA; assay: MIC summary on strain panel (Table 5); assay type: cell-based, Staphylococcus aureus
# Description: In particular, eleven linezolid-resistant coagulase-negative staphylococci (CoNS) (ten S. epidermidis and one S. hominis) were investigated. The eleven linezolid-resistant strains were isolated in several hospital settings between 2010 and 2011 from positive blood cultures. For the […], recently isolated from patients with cystic fibrosis, showing different profiles of multi-resistance to different classes of antimicrobials, was used (Table 4 and 5).
# (§1) The in vitro antibacterial activity of the new agents was studied by determining their minimum inhibitory concentrations (MICs) by means of the broth microdilution method according to the Clinical and Laboratory Standards Institute (CLSI) guidelines.[16] Briefly, serial 2-fold dilutions of each compound were made using the Cation adjusted Mueller-Hinton broth (CAMHB) in microtitre plates with 96 wells. Dimethyl sulfoxide (DMSO) was used as solvent for all the synthesized compounds. An equal volume of the bacterial inoculum (1×10^6 CFU/mL) was added to each well on the microtitre plate containing 0.05 mL of the serial antibiotic dilutions. The microtitre plate was then incubated at 37° C. for 18-24 h after which each well was analysed for the presence of bacterial growth. The MIC was defined as the lowest concentration of antimicrobial agent able to cause inhibition of bacterial growth as shown by the lack of turbidity of the culture medium. […] Final DMSO concentrations were also taken into account in all the biological assays.
# [2] = tested on: Linezolid-resistant S. hominis Strain 11; assay: MIC by broth microdilution (Table 5); assay type: cell-based, Staphylococcus hominis; conditions: S. hominis Strain 11, linezolid-resistant
# Description: as §1
# [3] = tested on: Linezolid-resistant S. epidermidis Strains 1-10; assay: MIC by broth microdilution (Table 5); assay type: cell-based, Staphylococcus epidermidis
# Description: as §1
# [4] = tested on: Staphylococcus aureus ATCC 29213; assay: MIC by broth microdilution (CLSI); assay type: cell-based; conditions: read-out: MIC
# Description: (§2) Several well characterized for their antibiotic-susceptibility phenotype Staphylococcus aureus isolates were used for the determination of the in vitro antibacterial activity of the studied compounds. In particular, S. aureus ATCC 29213 reference standard strain and S. aureus M923 (collection strain) were used as MSSA strains. Among MRSA, S. aureus MU50 (ATCC 700699) reference standard strain and two collection strains (433 and F511) were used for susceptibility assays.
# as §1
# (§3) The antimicrobial activities, summarized in Table 2, were determined by the “gold standard” method of broth microdilution, as recommended by the Clinical Laboratory Standards Institute (CLSI) (See the Experimental Section). […] In detail, the bacterial strains were tested: Staphylococcus aureus ATCC 29213, a clinical strain of methicillin-susceptible S. aureus (M923), S. aureus MU50 (methicillin-resistant—MRSA), and two methicillin-resistant clinical strains, 433 and F511.
# (§4) The antimicrobial activities, summarized in Table 3, were determined by the “gold standard” method of broth microdilution, as recommended by the Clinical Laboratory Standards Institute (CLSI) (See the Experimental Section). The minimum inhibitory concentration (MIC) values were expressed in μg/mL. […] In detail, the tested bacterial strains were: Staphylococcus aureus ATCC 29213, a clinical strain of methicillin-susceptible S. aureus (M923), S. aureus MU50 (methicillin-resistant—MRSA) strain, and two methicillin-resistant clinical strains, 433 and F511.
# [5] = tested on: 11 Linezolid-resistant CoNS; assay: MIC summary on strain panel (Table 5); assay type: cell-based, Staphylococcus epidermidis, Staphylococcus hominis; conditions: 11 Linezolid-resistant CoNS
# Description: as §1
# ATCC E. faecalis 29212 = assay: MIC by broth microdilution (Table 5); assay type: cell-based, Enterococcus faecalis
# Protocol: Dimethyl sulfoxide (DMSO) was used as solvent for all the synthesized compounds. An equal volume of the bacterial inoculum (1×10^6 CFU/mL) was added to each well on the microtitre plate containing 0.05 mL of the serial antibiotic dilutions. The microtitre plate was then incubated at 37° C. for 18-24 h after which each well was analysed for the presence of bacterial growth. The MIC was defined as the lowest concentration of antimicrobial agent able to cause inhibition of bacterial growth as shown by the lack of turbidity of the culture medium. […] Final DMSO concentrations were also taken into account in all the biological assays.
# [6] = tested on: 6 ATCC (4MSSA, 2 MRSA)plus45 MRSA all LZD sensitive; assay: MIC on strain panel (Table 4); assay type: cell-based, Staphylococcus aureus; conditions: 6 ATCC plus 45 MRSA
# Description: as §1
# [7] = tested on: 12 MRSE all LZD sensitive; assay: MIC on strain panel (Table 4); assay type: cell-based, Staphylococcus epidermidis; conditions: Staphylococcus epidermidis
# Description: as §1
# [8] = tested on: methicillin-susceptible S. aureus (M923); assay: MIC by broth microdilution (CLSI); assay type: cell-based, Staphylococcus aureus; conditions: Staphylococcus aureus; MSSA M923; racemic form; Table 3; read-out: MIC
# Description: as §2, §1, §3, §4
# [9] = tested on: S. aureus MU50 (ATCC 700699), methicillin-resistant (MRSA); assay: MIC by broth microdilution (CLSI); assay type: cell-based, Staphylococcus aureus; conditions: Staphylococcus aureus, racemic form, Table 3, read-out: MIC
# Description: as §2, §1, §3, §4
# [10] = tested on: MRSA clinical strain F511; assay: MIC by broth microdilution (CLSI); assay type: cell-based, Staphylococcus aureus; conditions: Staphylococcus aureus, racemic form, Table 3, read-out: MIC
# Description: as §2, §1, §3, §4
# MRSA clinical strain 433 = assay: MIC by broth microdilution (CLSI); assay type: cell-based, Staphylococcus aureus; conditions: Staphylococcus aureus; MRSA 433; racemic form; Table 3; read-out: MIC
# Description: as §2, §1, §3, §4
# [11] = S. epidermidis Strain 1, linezolid-resistant
# [12] = S. epidermidis Strain 2, linezolid-resistant
# [13] = S. epidermidis Strain 3, linezolid-resistant
# [14] = S. epidermidis Strain 4, linezolid-resistant
# [15] = S. epidermidis Strain 5, linezolid-resistant
# [16] = S. epidermidis Strain 6, linezolid-resistant
# [17] = S. epidermidis Strain 7, linezolid-resistant
# [18] = S. epidermidis Strain 8, linezolid-resistant
# [19] = S. epidermidis Strain 9, linezolid-resistant
# [20] = S. epidermidis Strain 10, linezolid-resistant
# [21] = ATCC S. aureus 29213, resolved enantiomers, Table 5
structure (smiles),measurement,setting,value
CC(=S)NC[C@@H]1CN(c2ccc(-c3nc(C)no3)cc2)C(=O)O1 [Compound A4aR],MIC50,[1],> 128 µg/mL
same,MIC,[2],> 128 µg/mL
same,MIC,[3]; [11],> 128 µg/mL
same,MIC,[3]; [12],> 128 µg/mL
same,MIC,[3]; [13],> 128 µg/mL
same,MIC,[3]; [14],> 128 µg/mL
same,MIC,[3]; [15],> 128 µg/mL
same,MIC,[3]; [16],> 128 µg/mL
same,MIC,[3]; [17],> 128 µg/mL
same,MIC,[3]; [18],> 128 µg/mL
same,MIC,[3]; [19],> 128 µg/mL
same,MIC,[3]; [20],> 128 µg/mL
same,MIC,[4]; [21],128 µg/mL
same,MIC50,[5],> 128 µg/mL
same,MIC90,[5],> 128 µg/mL
same,MIC-range,[5],> 128 µg/mL
same,MIC,ATCC E. faecalis 29212,> 128 µg/mL
"CNC(=S)NCC1CN(c2ccc(-c3nc(C)no3)cc2)C(=O)O1 (racemic) [Compound B4a, 1-((3-(4-(3-methyl-1,2,4-oxadiazol-5-yl)phenyl)-oxazolidin-2-one-5-yl)methyl)-3-methylthiourea]",melting point,,189.4 to 191.8 °C
same,MIC-range,[6]; tested range ≤0.06 - >128,1 to 16 µg/mL
same,MIC50,"[6]; Staphylococcus aureus, read-out: MIC50",8 µg/mL
same,MIC90,"[6]; Staphylococcus aureus, read-out: MIC90",16 µg/mL
same,MIC,"[4]; Staphylococcus aureus, ATCC29213, ATCC 29213, racemic form, Table 3",6.25 µg/mL
same,MIC50,[7]; read-out: MIC50,64 µg/mL
same,MIC90,[7]; read-out: MIC90,> 128 µg/mL
same,MIC,[8],6.25 µg/mL
same,MIC,[9],1.6 µg/mL
same,MIC,[10],6.25 µg/mL
same,MIC,MRSA clinical strain 433,3.12 µg/mL
CC(=S)NC[C@@H]1CN(c2ccc(-c3nc(C)no3)c(F)c2)C(=O)O1 [Compound A4bR],MIC50,[1],128 µg/mL
same,MIC,[2],128 µg/mL
same,MIC,[3]; [11],128 µg/mL
same,MIC,[3]; [12],> 128 µg/mL
same,MIC,[3]; [13],> 128 µg/mL
same,MIC,[3]; [14],128 µg/mL
same,MIC,[3]; [15],128 µg/mL
same,MIC,[3]; [16],64 µg/mL
same,MIC,[3]; [17],> 128 µg/mL
same,MIC,[3]; [18],128 µg/mL
same,MIC,[3]; [19],> 128 µg/mL
same,MIC,[3]; [20],128 µg/mL
same,MIC,[4]; [21],64 µg/mL
same,MIC50,[5],128 µg/mL
same,MIC90,[5],128 µg/mL
same,MIC,ATCC E. faecalis 29212,32 µg/mL
CC(=S)NC[C@H]1CN(c2ccc(-c3nc(C)no3)cc2)C(=O)O1 [Compound A4aS],MIC50,[1],2 µg/mL
same,MIC,[2],8 µg/mL
same,MIC,[3]; [11],8 µg/mL
same,MIC,[3]; [12],32 µg/mL
same,MIC,[3]; [13],4 µg/mL
same,MIC,[3]; [14],32 µg/mL
same,MIC,[3]; [15],4 µg/mL
same,MIC,[3]; [16],4 µg/mL
same,MIC,[3]; [17],32 µg/mL
same,MIC,[3]; [18],32 µg/mL
same,MIC,[3]; [19],1 µg/mL
same,MIC,[3]; [20],8 µg/mL
same,MIC,[4]; [21],8 µg/mL
same,MIC50,[5],8 µg/mL
same,MIC90,[5],32 µg/mL
same,MIC,ATCC E. faecalis 29212,4 µg/mL
